Laboratory results taken from the supplement of paper PMC10307832.

Legend:
Assay in all cases: relative viability (nuclei count vs DMSO), 5 days (fraction); higher = more cells survive
[1] = compound: C/C(=N\NC(=S)N1CCC1)/C2=CC=CC=N2
Summary of the method: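 On vehicle-anchored 1536-well plates, lung cancer cell lines held overnight at 37 °C were pinned with five library-drug doses (not always all listed) spaced by √10. With no medium change over 5 days, they were then fixed, permeabilised and Hoechst-stained in one step and imaged at 4×. MetaXpress counted nuclei, and viability is the median across plates of treated-well over vehicle-well nuclei. Acceptance needed control CV below 25% and at least one doubling.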

[2] = compound: C/C(=N\NC(=S)N1CCC1)/C2=CC=CC=N2 + COc1cccc2cc(-c3nc([C@H]4CC[C@H](C(=O)O)CC4)n4ncnc(N)c34)[nH]c12 [OSI-027] (partner 0.5 µM)
Summary of the method: (§1)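 The day after seeding in 1536-well plates, lung cancer cell lines were treated by pin tool with a single drug, or with a fixed anchor-drug dose together with five library-drug doses (not always all listed) in √10 steps. After 5 days, a combined fix-and-stain solution (final 0.05% Triton X-100, 1% formaldehyde, 1 ug/ml Hoechst) was added. Nuclei counted on 4× images gave relative viability as treated counts over vehicle counts, reported as the median of duplicate plates.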

[3] = compound: C/C(=N\NC(=S)N1CCC1)/C2=CC=CC=N2 + COc1cc2c(Oc3ccc(NC(=O)C4(C(=O)Nc5ccc(F)cc5)CC4)cc3F)ccnc2cc1OCCCN1CCOCC1 [Foretinib] (partner 0.25 µM)
Summary of the method: as §1

[4] = compound: C/C(=N\NC(=S)N1CCC1)/C2=CC=CC=N2 + CC(=O)c1c(C)c2cnc(Nc3ccc(N4CCNCC4)cn3)nc2n(C2CCCC2)c1=O [Palbociclib] (partner 0.5 µM)
Summary of the method: as §1

Cell Line | relative viability ([1]; 0.05 µM) | relative viability ([1]; 0.1581 µM) | relative viability ([1]; 0.5 µM) | relative viability ([1]; 1.581 µM) | relative viability ([1]; 5 µM) | relative viability ([2]; first compound 0.05 µM) | relative viability ([2]; first compound 0.1581 µM) | relative viability ([2]; first compound 0.5 µM) | relative viability ([2]; first compound 1.581 µM) | relative viability ([2]; first compound 5 µM) | relative viability ([3]; first compound 0.05 µM) | relative viability ([3]; first compound 0.1581 µM) | relative viability ([3]; first compound 0.5 µM) | relative viability ([3]; first compound 1.581 µM) | relative viability ([3]; first compound 5 µM) | relative viability ([4]; first compound 0.05 µM) | relative viability ([4]; first compound 0.1581 µM) | relative viability ([4]; first compound 0.5 µM) | relative viability ([4]; first compound 1.581 µM) | relative viability ([4]; first compound 5 µM)
NCI-H727 | 0.25 | 0.235 | 0.245 | 0.27 | 0.272 | 0.229 | 0.258 | 0.289 | 0.244 | 0.364 | 0.225 | 0.231 | 0.227 | 0.227 | 0.22 | 0.346 | 0.393 | 0.363 | 0.314 | 0.439
NCI-H838 | 0.247 | 0.255 | 0.279 | 0.179 | 0.185 | 0.167 | 0.179 | 0.19 | 0.129 | 0.142 | 0.259 | 0.255 | 0.216 | 0.217 | 0.18 | 0.161 | 0.165 | 0.158 | 0.129 | 0.13
NCI-H1355 | 0.204 | 0.216 | 0.21 | 0.197 | 0.214 | 0.201 | 0.213 | 0.208 | 0.18 | 0.178 | 0.282 | 0.378 | 0.22 | 0.197 | 0.162 | 0.171 | 0.167 | 0.165 | 0.148 | 0.154
NCI-H1395 | 0.423 | 0.41 | 0.336 | 0.344 | 0.383 | 0.291 | 0.388 | 0.31 | 0.29 | 0.364 | 0.381 | 0.368 | 0.369 | 0.351 | 0.349 | 0.33 | 0.333 | 0.329 | 0.366 | 0.381
NCI-H1437 | 0.242 | 0.235 | 0.206 | 0.173 | 0.155 | 0.19 | 0.174 | 0.174 | 0.135 | 0.106 | 0.242 | 0.261 | 0.229 | 0.192 | 0.162 | 0.183 | 0.175 | 0.163 | 0.129 | 0.111
NCI-H1650 | 0.18 | 0.26 | 0.183 | 0.173 | 0.199 | 0.158 | 0.216 | 0.17 | 0.152 | 0.184 | 0.185 | 0.225 | 0.175 | 0.205 | 0.215 | 0.17 | 0.119 | 0.138 | 0.138 | 0.163
NCI-H1651 | 0.19 | 0.175 | 0.152 | 0.11 | 0.105 | 0.152 | 0.165 | 0.13 | 0.0837 | 0.093 | 0.136 | 0.142 | 0.127 | 0.0965 | 0.107 | 0.159 | 0.134 | 0.129 | 0.0856 | 0.0851
NCI-H1666 | 0.433 | 0.404 | 0.369 | 0.349 | 0.329 | 0.396 | 0.41 | 0.383 | 0.354 | 0.358 | 0.439 | 0.365 | 0.345 | 0.348 | 0.331 | 0.617 | 0.608 | 0.564 | 0.495 | 0.509
NCI-H1734 | 0.184 | 0.186 | 0.189 | 0.13 | 0.116 | 0.167 | 0.163 | 0.179 | 0.116 | 0.118 | 0.166 | 0.162 | 0.203 | 0.129 | 0.102 | 0.14 | 0.132 | 0.169 | 0.131 | 0.129
NCI-H1755 | 0.353 | 0.332 | 0.321 | 0.303 | 0.282 | 0.292 | 0.288 | 0.287 | 0.273 | 0.228 | 0.518 | 0.35 | 0.283 | 0.268 | 0.258 | 0.407 | 0.452 | 0.33 | 0.294 | 0.303
NCI-H1793 | 0.181 | 0.215 | 0.176 | 0.16 | 0.168 | 0.128 | 0.176 | 0.159 | 0.153 | 0.142 | 0.229 | 0.382 | 0.157 | 0.143 | 0.188 | 0.191 | 0.162 | 0.146 | 0.155 | 0.174
NCI-H1915 | 0.237 | 0.216 | 0.199 | 0.179 | 0.178 | 0.184 | 0.165 | 0.176 | 0.179 | 0.163 | 0.366 | 0.675 | 0.216 | 0.192 | 0.173 | 0.166 | 0.159 | 0.138 | 0.12 | 0.124
NCI-H1944 | 0.263 | 0.179 | 0.19 | 0.161 | 0.151 | 0.197 | 0.192 | 0.168 | 0.133 | 0.12 | 0.624 | 0.38 | 0.181 | 0.143 | 0.166 | 0.253 | 0.3 | 0.166 | 0.148 | 0.129
NCI-H1975 | 0.178 | 0.179 | 0.168 | 0.158 | 0.185 | 0.137 | 0.119 | 0.116 | 0.105 | 0.11 | 0.137 | 0.143 | 0.129 | 0.124 | 0.124 | 0.105 | 0.106 | 0.105 | 0.11 | 0.131
